Laboratory results from patent publication US12692261B2, “Substituted heterocyclic compounds and therapeutic uses thereof” (Bayer Aktiengesellschaft, priority 2020, dated 2026).
pIC50: −log10 of the molar value.

Experiments:
Format in all cases: biochemical
[1] = target: T1, full-length human CSNK1A1 (Homo sapiens, UniProt P48729); experiment: CSNK1A1 Assay 2 (ADP-Glo, 1 μM ATP, substrate biotin-Ahx-KRRRAL-pS-VASLPGL); settings: Table 3, read-out: CSNK1A1 Assay 2 IC50 [mol/l] (median)
T1 construct: N-terminal Glutathion-S-Transferase (GST) and full-length human CSNK1A1; purchased Life Technologies PV4174; host or cells: baculovirus infected insect cells
Method: CSNK1A1-inhibitory activity of compounds of the present invention in presence of 1 μM adenosine-tri-phosphate (ATP) was quantified employing the CSNK1A1 assay as described in the following paragraphs. In essence, the enzyme activity is measured by quantification of the adenosine-di-phosphate (ADP), which is generated as a co-product of the enzyme reaction, via the “ADP-Glo™ Kinase Assay” kit from the company Promega. This detection system works as follows: In a first step the ATP not consumed in the kinase reaction is quantitatively converted to cAMP employing an adenylate cyclase (“ADP-Glo-reagent”), then the adenylate cyclase is stopped and the ADP generated in the kinase reaction converted to ATP which generates in a luciferase-based reaction a glow-luminescence signal (“Kinase Detection Reagent”).
(§1) Recombinant fusion protein of N-terminal Glutathion-S-Transferase (GST) and full-length human CSNK1A1, expressed by baculovirus infected insect cells and purified via Glutathion affinity chromatography, was purchased from Life Technologies (product no. PV4174) and used as enzyme. As substrate for the kinase reaction the biotinylated peptide biotin-Ahx-KRRRAL-pS-VASLPGL (C-terminus in amide form) was used which can be purchased e.g. from the company Biosyntan (Berlin-Buch, Germany).
For the assay 50 nl of a 100 fold concentrated solution of the test compound in DMSO was pipetted into a white 1536-well microtiter plate (Greiner Bio-One, Frickenhausen, Germany), 2 μL of a solution of CSNK1A1 in aqueous assay buffer [50 mM HEPES pH 7.5, 10% (v/v) glycerol, 10 mM MgCl2, 50 mM NaCl, 1 mM dithiothreitol, 0.01% (w/v) bovine serum albumin, 0.01% (v/v) Triton X-100] were added and the mixture was incubated for 15 min at 22° C. to allow pre-binding of the test compounds to the enzyme before the start of the kinase reaction. […] The concentration of CSNK1A1 was adjusted depending of the activity of the enzyme lot and was chosen appropriate to have the assay in the linear range, a typical concentrations are about 0.0375 ng/μL. The reaction was stopped by the addition of 2.5 μL of “ADP-Glo-reagent” (1:1.5 fold diluted with water) and the resulting mixture was incubated at 22° C. for 1 h to convert the ATP not consumed in the kinase reaction completely […]. Subsequently 2.5 μL of the “kinase detection reagent” (1.2 fold more concentrated than recommended by the producer) were added, the resulting mixture was incubated at 22° C. for 1 h and then the luminescence measured with a suitable measurement instrument (e.g. Viewlux™ from Perkin-Elmer). The amount of emitted light was taken as a measure for the amount of ADP generated and thereby for the activity of the CSNK1A1.

[2] = target: T1, full-length human CSNK1A1; experiment: CSNK1A1 High ATP Assay (ADP-Glo, 1 mM ATP); settings: Table 3, read-out: CSNK1A1 high ATP assay IC50 [mol/l] (median);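 further: 30 min kinase reaction at 22 °C with 100 µM peptide substrate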
Method: CSNK1A1-inhibitory activity of compounds of the present invention in presence of 1 mM adenosine-tri-phosphate (ATP) was quantified employing the CSNK1A1-high-ATP-assay as described in the following paragraphs. In essence, the enzyme activity is measured by quantification of the adenosine-di-phosphate (ADP), which is generated as a co-product of the enzyme reaction, via the “ADP-Glo™ Kinase Assay” kit from the company Promega. This detection system works as follows: In a first step the ATP not consumed in the kinase reaction is quantitatively converted to cAMP employing an adenylate cyclase (“ADP-Glo-reagent”), then the adenylate cyclase is stopped and the ADP generated in the kinase reaction converted to ATP which generates in a luciferase-based reaction a glow-luminescence signal (“Kinase Detection Reagent”).
as §1
For the assay 50 nl of a 100 fold concentrated solution of the test compound in DMSO was pipetted into a white low volume 384-well microtiter plate (Greiner Bio-One, Frickenhausen, Germany), 2 μL of a solution of CSNK1A1 in aqueous assay buffer [50 mM HEPES pH 7.5, 10% (v/v) glycerol, 10 mM MgCl2, 50 mM NaCl, 1 mM dithiothreitol, 0.01% (w/v) bovine serum albumin, 0.01% (v/v) Triton X-100] were added and the mixture was incubated for 15 min at 22° C. to allow pre-binding of the test compounds to the enzyme before the start of the kinase reaction. […] The concentration of CSNK1A1 was adjusted depending of the activity of the enzyme lot and was chosen appropriate to have the assay in the linear range, a typical concentration is about 0.4 ng/μL. The reaction was stopped by the addition of 2.5 μL of “ADP-Glo-reagent” (1:1.5 fold diluted with water) and the resulting mixture was incubated at 22° C. for 1 h to convert the ATP not consumed in the kinase reaction completely […]. Subsequently 2.5 μL of the “kinase detection reagent” (1.2 fold more concentrated than recommended by the producer) were added, the resulting mixture was incubated at 22° C. for 1 h and then the luminescence measured with a suitable measurement instrument (e.g. Viewlux™ from Perkin-Elmer). The amount of emitted light was taken as a measure for the amount of ADP generated and thereby for the activity of the CSNK1A1.

full-length human CSNK1D = target: T2, full-length human CSNK1D (Homo sapiens, UniProt P48730); experiment: CSNK1D Assay (ADP-Glo, 1 μM ATP); settings: Table 3, read-out: CSNK1D IC50 [mol/l] (median)
T2 construct: N-terminal Glutathion-S-Transferase (GST) and full-length human CSNK1D; purchased Life Technologies PV3665; host or cells: baculovirus infected insect cells
Method: CSNK1D-inhibitory activity of compounds of the present invention in presence of 1 μM adenosine-tri-phosphate (ATP) was quantified employing the CSNK1 D assay as described in the following paragraphs. In essence, the enzyme activity is measured by quantification of the adenosine-di-phosphate (ADP), which is generated as a co-product of the enzyme reaction, via the “ADP-Glo™ Kinase Assay” kit from the company Promega. This detection system works as follows: In a first step the ATP not consumed in the kinase reaction is quantitatively converted to cAMP employing an adenylate cyclase (“ADP-Glo-reagent”), then the adenylate cyclase is stopped and the ADP generated in the kinase reaction converted to ATP which generates in a luciferase-based reaction a glow-luminescence signal (“Kinase Detection Reagent”).
as §1, with “CSNK1D,” for “CSNK1A1,”, “PV3665)” for “PV4174)”, “Btn-Ahx-[…]” for “biotin-Ahx-KRRRAL-pS-VASLPGL”
For the assay 50 nl of a 100 fold concentrated solution of the test compound in DMSO was pipetted into a white 1536-well microtiter plate (Greiner Bio-One, Frickenhausen, Germany), 2 μL of a solution of CSNK1D in aqueous assay buffer [50 mM HEPES pH 7.5, 10% (v/v) glycerol, 10 mM MgCl2, 50 mM NaCl, 1 mM dithiothreitol, 0.01% (w/v) bovine serum albumin, 0.01% (v/v) Triton X-100] were added and the mixture was incubated for 15 min at 22° C. to allow pre-binding of the test compounds to the enzyme before the start of the kinase reaction. […] The concentration of CSNK1D was adjusted depending of the activity of the enzyme lot and was chosen appropriate to have the assay in the linear range, a typical concentration is about 0.5 ng/μL. The reaction was stopped by the addition of 2.5 μL of “ADP-Glo-reagent” (1:1.5 fold diluted with water) and the resulting mixture was incubated at 22° C. for 1 h to convert the ATP not consumed in the kinase reaction completely […]. Subsequently 2.5 μL of the “kinase detection reagent” (1.2 fold more concentrated than recommended by the producer) were added, the resulting mixture was incubated at 22° C. for 1 h and then the luminescence measured with a suitable measurement instrument (e.g. Viewlux™ from Perkin-Elmer). The amount of emitted light was taken as a measure for the amount of ADP generated and thereby for the activity of the CSNK1D.

T1 sequence (P48729 whole entry): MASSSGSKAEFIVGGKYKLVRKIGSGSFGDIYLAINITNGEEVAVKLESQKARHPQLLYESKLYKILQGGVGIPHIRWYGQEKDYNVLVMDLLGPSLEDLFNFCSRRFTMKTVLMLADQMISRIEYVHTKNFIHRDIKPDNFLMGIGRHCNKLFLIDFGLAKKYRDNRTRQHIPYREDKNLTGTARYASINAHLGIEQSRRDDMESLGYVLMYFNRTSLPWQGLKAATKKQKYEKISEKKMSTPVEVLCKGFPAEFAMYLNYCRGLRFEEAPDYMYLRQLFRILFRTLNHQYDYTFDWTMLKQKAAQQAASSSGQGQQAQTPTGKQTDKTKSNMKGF
T2 sequence (P48730 whole entry): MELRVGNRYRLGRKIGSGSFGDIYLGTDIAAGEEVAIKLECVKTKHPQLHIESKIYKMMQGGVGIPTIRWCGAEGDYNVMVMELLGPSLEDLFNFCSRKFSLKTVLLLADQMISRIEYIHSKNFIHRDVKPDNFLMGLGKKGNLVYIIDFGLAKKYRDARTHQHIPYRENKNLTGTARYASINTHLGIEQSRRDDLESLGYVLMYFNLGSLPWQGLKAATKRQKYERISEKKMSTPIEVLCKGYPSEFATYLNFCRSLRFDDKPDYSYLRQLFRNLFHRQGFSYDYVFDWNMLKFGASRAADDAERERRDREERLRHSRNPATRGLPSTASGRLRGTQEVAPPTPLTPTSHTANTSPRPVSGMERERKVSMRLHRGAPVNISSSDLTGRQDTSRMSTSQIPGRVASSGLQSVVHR

Structure (SMILES) | pIC50 [1] | pIC50 [2] | pIC50 (full-length human CSNK1D)
COCCOc1cc(F)nc2c(-c3ccccn3)c(-c3ccnc(NC(=O)C(CC(F)F)c4ccc(F)cc4)c3)[nH]c12 (single isomer, unassigned) [Example 91, (2R or S)-4,4-difluoro-N-{4-[5-fluoro-7-(2-methoxyethoxy)-3-(pyridin-2-yl)-1H-pyrrolo[3,2-b]pyridin-2-yl]pyridin-2-yl}-2-(4-fluorophenyl)butanamide] | 8.02 | 8.02 | 7.63
O=C(Nc1cc(-c2[nH]c3c(OC4CC4)cc(F)nc3c2-c2ccccn2)ccn1)C(CC(F)F)c1ccc(F)cc1 (single isomer, unassigned) [Example 44, N-{4-[7-(cyclopropyloxy)-5-fluoro-3-(pyridin-2-yl)-1H-pyrrolo[3,2-b]pyridin-2-yl]pyridin-2-yl}-4,4-difluoro-2-(4-fluorophenyl)butanamide] | 8.22 | 8.22 | 8.27
O=C(Nc1cc(-c2[nH]c3ccc(F)nc3c2-c2ccc(F)cn2)ccn1)C(CC(F)F)c1ccc(F)cc1 (stereo not drawn) [Example 108, 4,4-difluoro-N-{4-[5-fluoro-3-(5-fluoropyridin-2-yl)-1H-pyrrolo[3,2-b]pyridin-2-yl]pyridin-2-yl}-2-(4-fluorophenyl)butanamide] | 8.34 | 8.34 | 8.23
O=C(Nc1cc(-c2[nH]c3nc(OC(F)F)cnc3c2-c2ccccn2)ccn1)C(CC(F)F)c1ccc(F)cc1 (single isomer, unassigned) [Example 106, N-{4-[3-(difluoromethoxy)-7-(pyridin-2-yl)-5H-pyrrolo[2,3-b]pyrazin-6-yl]pyridin-2-yl}-4,4-difluoro-2-(4-fluorophenyl)butanamide] | 8.36 | 8.36 | 8.21
Cc1cc(F)nc2c(-c3ccccn3)c(-c3ccnc(NC(=O)C(CC(F)F)c4ccc(F)cc4)c3)[nH]c12 (single isomer, unassigned; (+)) [Example 37, (+)-4,4-difluoro-N-{4-[5-fluoro-7-methyl-3-(pyridin-2-yl)-1H-pyrrolo[3,2-b]pyridin-2-yl]pyridin-2-yl}-2-(4-fluorophenyl)butanamide] | 8.40 | 8.40 | 8.08
O=C(Nc1cc(-c2[nH]c3nc(OC(F)F)cnc3c2-c2ccccn2)ccn1)C(CC(F)F)c1ccc(F)cc1 (single isomer, unassigned) [Example 107, N-{4-[3-(difluoromethoxy)-7-(pyridin-2-yl)-5H-pyrrolo[2,3-b]pyrazin-6-yl]pyridin-2-yl}-4,4-difluoro-2-(4-fluorophenyl)butanamide] | 7.19 | 7.19 | 6.93
O=C(Nc1cc(-c2[nH]c3cc(Cl)cnc3c2-c2ccccn2)ccn1)C(CC(F)F)c1ccc(F)cc1 (stereo not drawn) [Example 87, N-{4-[6-chloro-3-(pyridin-2-yl)-1H-pyrrolo[3,2-b]pyridin-2-yl]pyridin-2-yl}-4,4-difluoro-2-(4-fluorophenyl)butanamide] | 8.22 | 8.22 | 7.97
COCCOc1cc(F)nc2c(-c3ccccn3)c(-c3ccnc(NC(=O)C(CC(F)F)c4ccc(F)cc4)c3)[nH]c12 (single isomer, unassigned) [Example 90, (2R or S)-4,4-difluoro-N-{4-[5-fluoro-7-(2-methoxyethoxy)-3-(pyridin-2-yl)-1H-pyrrolo[3,2-b]pyridin-2-yl]pyridin-2-yl}-2-(4-fluorophenyl)butanamide] | 8.61 | 8.61 | 8.60
